The structures appear in SMILES notation.

Series [1] concerns rat liver microsomes (RLM). Kind of series: Metabolic stability in rat liver microsomes (RLM). The note with it: for RLM, %, class symbol (metabolized or not) / RLM, % (half-life as % vs. the related nondeuterated compound): RLM assay; for RLM, %, class symbol (metabolized or not): last time point 120 min; for RLM, % (half-life as % vs. the related nondeuterated compound): values in square brackets are within 10% (assay's accuracy), no deuteration effect.

The target of a further series is T1, hrMAO-A (Homo sapiens, UniProt P21397).
T1 construct: purchased XenoTech Lot #8213001
T1 sequence (P21397 1-527): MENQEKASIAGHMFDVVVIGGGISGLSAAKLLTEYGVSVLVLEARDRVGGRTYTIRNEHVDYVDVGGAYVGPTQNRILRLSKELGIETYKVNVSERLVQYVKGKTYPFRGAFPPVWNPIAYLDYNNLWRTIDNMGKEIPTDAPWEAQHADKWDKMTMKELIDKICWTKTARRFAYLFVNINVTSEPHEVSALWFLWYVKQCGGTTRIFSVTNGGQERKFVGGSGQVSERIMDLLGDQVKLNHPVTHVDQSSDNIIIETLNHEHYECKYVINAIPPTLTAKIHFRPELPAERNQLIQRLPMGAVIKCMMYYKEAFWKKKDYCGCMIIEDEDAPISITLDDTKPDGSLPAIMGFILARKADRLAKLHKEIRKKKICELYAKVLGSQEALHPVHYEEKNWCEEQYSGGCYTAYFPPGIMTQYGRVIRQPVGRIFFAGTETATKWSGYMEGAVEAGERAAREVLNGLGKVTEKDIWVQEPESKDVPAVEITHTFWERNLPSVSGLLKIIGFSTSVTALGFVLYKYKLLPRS
Kind of series: Metabolic stability in the presence of hrMAO-A. The note with it: for MAO, % (half-life as % vs. the related nondeuterated compound) / MAO, %, class symbol (metabolized or not): MAO-A assay; for MAO, % (half-life as % vs. the related nondeuterated compound): values in square brackets are within 10% (assay's accuracy), no deuteration effect; for MAO, %, class symbol (metabolized or not): last time point 120 min. It counts as in vitro ADME. On the procedure:
The reaction mixture was prepared as described below. The co-dosed TAs were added into the reaction mixture at a final concentration of 1 microM each. The positive control, kynuramine (25 microM), was run simultaneously with the TAs in a separate reaction. The reaction mixture (without TAs or kynuramine) was equilibrated in a shaking water bath at 37° C. for 5 minutes. The reaction was initiated by the addition of the TAs or kynuramine, and the mixture was incubated in a shaking water bath at 37° C. Aliquots (100 microL) of the TA reaction mixture were withdrawn at 0, 5, 10, 20, 30, 60, and 120 minutes. Aliquots (100 microL) of the positive control reaction mixture were withdrawn at 0 and 30 minutes. TA and kynuramine samples were immediately combined with 100 microL of ice-cold 100% MeCN containing 0.1% formic acid and IS to terminate the reaction. The samples were then mixed and centrifuged to precipitate proteins. All TA samples were assayed by LC-HRAMS. The PARR (analyte to IS) at each time point was compared to the PARR at time 0 to determine the percent remaining at each time point. Reaction composition: hrMAO 0.02 mg/mL; Potassium Phosphate, pH 7.4 100 mM; Magnesium Chloride 5 mM; Test Articles (each) 1 microM.

Series [2] in a line: PK studies in rats (cassette dosing, oral gavage or catheter; brain and plasma levels). The note with it: % change vs. non-deuterated material; for Deuterium Kinetic Isotope Effect (% change) AUC / Deuterium Kinetic Isotope Effect (% change) T1/2: 5 mg/kg; for Deuterium Kinetic Isotope Effect (% change) BPR, 15 min: sacrificed at 15 min; for Deuterium Kinetic Isotope Effect (% change) BPR, 15 min / Deuterium Kinetic Isotope Effect (% change) BPR, 30 min: parent drug in brain and plasma; for Deuterium Kinetic Isotope Effect (% change) BPR, 30 min: sacrificed at 30 min. It counts as in vivo, Wistar female rats. The method, then:
The key PK parameters (presented as a % change vs. non-deuterated materials) are presented in Table 3 to include half-life (T1/2), area under the curve (AUC), bioavailability (F) and blood-to-plasma ration (BPR). Pharmacokinetics of the deuterated tryptamines was studied in rats. In a typical experiment, run as a cassette dosing, two groups of 5 Wistar female rats (200-250 g) with surgically inserted jugular vein catheter (Charles River, Andover, MA) were fasted for 12 h and then administered 5 mg/kg of the deuterated and 5 mg/kg of the related non-deuterated analog, by oral gavage or via a catheter for each group. At time points 0, 15, 30, 60 min, and 2, 4, 8, and 24 h, the resulting plasma was analyzed for the parent molecule using LC/MS spectroscopy. Two separate groups of 5 animals were used for determining blood-to-plasma ratio (BPR). Each group was sacrificed at time points 15 and 30 min, respectively, and the concentration of the parent drug was determined in the brain and plasma by LC/MS spectroscopy.

Where [3] appears, read: Table 5, d8 and d10 analogs, hrMAO-A.

For the compound `C=CCN(CC=C)CCc1c[nH]c2ccccc12`, the “RLM, %, class symbol (metabolized or not)” value in series [1] was “R”. The same measure, in the same setting: as for `C=CCNCCc1c[nH]c2ccccc12`, the entry is “R”. Regarding `[2H]C([2H])(Cc1c[nH]c2ccccc12)NC([2H])([2H])C([2H])([2H])[2H]`, the “MAO, % (half-life as % vs. the related nondeuterated compound)” value on hrMAO-A is 170%. As for `[2H]C([2H])([2H])C([2H])([2H])NC([2H])([2H])C([2H])([2H])c1c[nH]c2cccc(O)c12`, the “RLM, % (half-life as % vs. the related nondeuterated compound)” value in series [1] is “[93] %”.

Turning to `CCN(CC)CCc1c[nH]c2ccccc12`, in series [1], the “RLM, %, class symbol (metabolized or not)” value is given as “R”.

On to `[2H]C([2H])(c1c[nH]c2ccc(OC)cc12)C([2H])([2H])N(CC)CC`, for which the “RLM, % (half-life as % vs. the related nondeuterated compound)” value in series [1] is “[95] %”. Consider `CCN(CC)CCc1c[nH]c2ccc(OC)cc12`, for which the “RLM, %, class symbol (metabolized or not)” value in series [1] was “R”. Turning to `CCN(CC)CCc1c[nH]c2ccc(O)cc12`, the “RLM, %, class symbol (metabolized or not)” value in series [1] is given as “R”. As to `CCN(CC)CCc1c[nH]c2cccc(OC)c12`, the “RLM, %, class symbol (metabolized or not)” value in series [1] is recorded as “R”. For the compound `[2H]c1ccc2[nH]c([2H])c(CCN([2H])CC)c2c1O`, the “RLM, %, class symbol (metabolized or not)” value in series [1] is on record as “R”.

In the case of `[2H]C([2H])(NCC)C([2H])([2H])c1c[nH]c2ccccc12`, the “MAO, % (half-life as % vs. the related nondeuterated compound)” value on hrMAO-A turned out to be 140%.

For `[2H]C([2H])(NCC)C([2H])([2H])c1c[nH]c2cccc(O)c12`, the “RLM, % (half-life as % vs. the related nondeuterated compound)” value in series [1] is “[94] %”.

As to `CCNCCc1c[nH]c2cccc(O)c12`, in series [1], the “RLM, %, class symbol (metabolized or not)” value is “R”. As for `[2H]C([2H])(c1c[nH]c2cccc(OC)c12)C([2H])([2H])N(C)C`, the “RLM, % (half-life as % vs. the related nondeuterated compound)” value in series [1] amounted to 190%. In the case of `[2H]C([2H])(NC)C([2H])([2H])c1c[nH]c2cccc(O)c12`, the “RLM, % (half-life as % vs. the related nondeuterated compound)” value in series [1] is listed as 160%.

Regarding `CC(C)NCCc1c[nH]c2ccccc12`, the “RLM, %, class symbol (metabolized or not)” value in series [1] is “R”. The same measure, in the same setting: for `CC(C)NCCc1c[nH]c2cccc(O)c12` the value was “R”. As for `[2H]C([2H])(c1c[nH]c2cccc(O)c12)C([2H])([2H])N(C(C)C)C(C)C`, in series [1], the “RLM, % (half-life as % vs. the related nondeuterated compound)” value is “[97] %”.

As for `CC(C)N(CCc1c[nH]c2cccc(O)c12)C(C)C`, the “RLM, %, class symbol (metabolized or not)” value in series [1] is reported as “R”. Take `COc1ccc2[nH]cc(CCN(C)C)c2c1` [5-MeO-DMT, reference compound]: the “MAO, %, class symbol (metabolized or not)” value on hrMAO-A is “R”. Moreover, in series [1], the “RLM, %, class symbol (metabolized or not)” value is “R”.

In the case of `[2H]C([2H])(Cc1c[nH]c2ccc(OC)cc12)N(C)C` [5-MeO-DMT-α,α-d2], in series [2], the “Deuterium Kinetic Isotope Effect (% change) AUC” value amounted to 60 % change; the “Deuterium Kinetic Isotope Effect (% change) T1/2” value is listed as 30 % change; the “Deuterium Kinetic Isotope Effect (% change) BPR, 15 min” value was 120 % change; the “Deuterium Kinetic Isotope Effect (% change) BPR, 30 min” value is reported as 180 % change. As for `[2H]C([2H])(Cc1c[nH]c2ccccc12)N(C)C` [DMT-d2], on hrMAO-A (Table 3, hrMAO-A), the Half-life is above 2 h. Besides, the “% Remaining of Initial 0 min” value on hrMAO-A (Table 3, hrMAO-A) came to 100%; in series [1] (Table 2, RLM) it was 100%. For the same compound, the “% Remaining of Initial 60 min” value at hrMAO-A (Table 3, hrMAO-A, 60 min) is reported as 76.0%; in series [1] (Table 2, RLM, 60 min) it was 32.0%.

Turning to `[2H]C([2H])(c1c[nH]c2ccccc12)C([2H])([2H])N(C)C` [DMT-d4], on hrMAO-A (Table 3, hrMAO-A), the Half-life was above 2 h and the “% Remaining of Initial 0 min” value was determined as 100%. For the same compound, in series [1] (Table 2, RLM), the “% Remaining of Initial 0 min” value is given as 100%. As to `[2H]C([2H])([2H])N(C([2H])([2H])[2H])C([2H])([2H])C([2H])([2H])c1c[nH]c2ccccc12` [DMT-d10], the “metabolic stability in the MAO-A enzymatic assay, in words” value on hrMAO-A (MAO-A enzymatic assay) is “superiority”. Moreover, the Half-life is above 2 h at hrMAO-A (Table 3, hrMAO-A) and above 2 h at hrMAO-A (setting [3]). For the same compound, the “% Remaining of Initial 0 min” value at hrMAO-A (Table 3, hrMAO-A) came out at 100%; at hrMAO-A (setting [3]), 100.0%; in series [1] (Table 2, RLM) it was 100%; in series [1] (Table 4, d8 and d10 analogs, RLM), 100%. Moreover, the “% Remaining of Initial 5 min” value at hrMAO-A (Table 5, d8 and d10 analogs, hrMAO-A, 5 min) came out at 99.0%. Also, the “% Remaining of Initial 10 min” value in series [1] (Table 4, d8 and d10 analogs, RLM, 10 min) is 56.0%. In addition, the “kinetic deuterium isotope effect / metabolic stability, in words” value in series [1] (rat liver microsomes, vs. DMT) was “Further enhancement of metabolic stability”. As for `CN(C)CCc1c[nH]c2ccccc12` [DMT], the “% Remaining of Initial 0 min” value on hrMAO-A (Table 3, hrMAO-A) is reported as 100%; in series [1] (Table 2, RLM), 100%. Also, the “% Remaining of Initial 20 min” value in series [1] (Table 2, RLM, 20 min) is listed as 41.0%. As to `[2H]C([2H])(Cc1c[nH]c2cccc(O)c12)N(C)C` [PI-α,α-d2], in series [2], the “Deuterium Kinetic Isotope Effect (% change) AUC” value stood at 75 % change; the “Deuterium Kinetic Isotope Effect (% change) T1/2” value is listed as 50 % change; the “Deuterium Kinetic Isotope Effect (% change) BPR, 15 min” value came out at 100 % change; the “Deuterium Kinetic Isotope Effect (% change) BPR, 30 min” value was determined as 150 % change. Turning to `CCNCCc1c[nH]c2ccccc12` [reference compound], the “MAO, %, class symbol (metabolized or not)” value on hrMAO-A was “R”. Further, the “RLM, %, class symbol (metabolized or not)” value in series [1] is given as “R”. On to `CCN(C)CCc1c[nH]c2ccccc12` [reference compound], for which the “MAO, %, class symbol (metabolized or not)” value at hrMAO-A is given as “R”. Moreover, the “RLM, %, class symbol (metabolized or not)” value in series [1] is on record as “R”. `CCN(C)CCc1c[nH]c2ccc(OC)cc12` [reference compound]: the “MAO, %, class symbol (metabolized or not)” value at hrMAO-A was “R”. Also, in series [1], the “RLM, %, class symbol (metabolized or not)” value is “R”. As to `CCN(C)CCc1c[nH]c2ccc(O)cc12` [reference compound], the “MAO, %, class symbol (metabolized or not)” value at hrMAO-A is “R”. In addition, the “RLM, %, class symbol (metabolized or not)” value in series [1] is “R”. For the compound `CCN(C)CCc1c[nH]c2cccc(OC)c12` [reference compound], the “MAO, %, class symbol (metabolized or not)” value on hrMAO-A is listed as “R”. For the same compound, the “RLM, %, class symbol (metabolized or not)” value in series [1] is reported as “R”. Turning to `CN(C)CCc1c[nH]c2ccc(O)cc12` [reference compound], the “MAO, %, class symbol (metabolized or not)” value on hrMAO-A is given as “R”. For the same compound, the “RLM, %, class symbol (metabolized or not)” value in series [1] was “R”.

Take `COc1cccc2[nH]cc(CCN(C)C)c12` [reference compound]: the “MAO, %, class symbol (metabolized or not)” value at hrMAO-A is recorded as “R”. In series [1], the “RLM, %, class symbol (metabolized or not)” value was “R”. As for `CNCCc1c[nH]c2ccccc12` [reference compound], the “MAO, %, class symbol (metabolized or not)” value at hrMAO-A is recorded as “R”. The “RLM, %, class symbol (metabolized or not)” value in series [1] was “R”. Regarding `CNCCc1c[nH]c2cccc(O)c12` [reference compound], the “MAO, %, class symbol (metabolized or not)” value at hrMAO-A is “R”. The “RLM, %, class symbol (metabolized or not)” value in series [1] is “R”.

Values taken from US12291499B2, “Deuterated tryptamine derivatives and methods of use” (priority 2020, dated 2025).
